The target in experiment [1] is G protein-coupled receptor kinase 6 (Homo sapiens) (UniProt P43250). Briefly: Residual activity of GRK6 at 10 uM by microplate scintillation counting.
Experiment [2] addresses CDK3/cyclin E (Homo sapiens) (UniProt P24864+O96020+Q00526). Briefly: Residual activity of CDK3/Cyclin E at 0.1 uM by microplate scintillation counting. The class given is protein-complex assay.
Experiment [3] concerns the target Cyclin-dependent kinase 16 (Homo sapiens) (UniProt Q00536). The experiment can be described thus: Residual activity of PCTAIRE1 at 10 uM by microplate scintillation counting.
Experiment [4] deals with Epidermal growth factor receptor (Homo sapiens), P00533 [L858R,T790M]. The experiment can be described thus: Residual activity of EGFR T790M/L858R mutant at 10 uM by microplate scintillation counting.
Experiment [5] has as its target T1, cAMP-dependent protein kinase catalytic subunit PRKX (Homo sapiens) (UniProt P51817).
T1 sequence (whole entry): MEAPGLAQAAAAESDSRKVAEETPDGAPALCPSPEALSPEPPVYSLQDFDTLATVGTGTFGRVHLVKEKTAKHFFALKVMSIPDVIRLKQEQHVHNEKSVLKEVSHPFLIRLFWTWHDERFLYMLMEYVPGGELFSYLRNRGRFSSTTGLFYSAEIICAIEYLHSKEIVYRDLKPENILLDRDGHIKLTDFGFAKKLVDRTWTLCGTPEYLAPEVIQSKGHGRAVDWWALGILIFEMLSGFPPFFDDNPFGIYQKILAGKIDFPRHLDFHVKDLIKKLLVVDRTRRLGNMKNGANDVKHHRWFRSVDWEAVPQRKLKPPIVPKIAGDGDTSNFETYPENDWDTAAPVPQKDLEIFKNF
The experiment can be described thus: Residual activity of PRKX at 10 uM by microplate scintillation counting.

The target of experiment [6] is Glycogen synthase kinase-3 beta (Homo sapiens) (UniProt P49841). The experiment can be described thus: Residual activity of GSK3-beta at 0.1 uM by microplate scintillation counting.
Glycogen synthase kinase-3 beta (Homo sapiens), sequence (P49841 whole entry, looked up): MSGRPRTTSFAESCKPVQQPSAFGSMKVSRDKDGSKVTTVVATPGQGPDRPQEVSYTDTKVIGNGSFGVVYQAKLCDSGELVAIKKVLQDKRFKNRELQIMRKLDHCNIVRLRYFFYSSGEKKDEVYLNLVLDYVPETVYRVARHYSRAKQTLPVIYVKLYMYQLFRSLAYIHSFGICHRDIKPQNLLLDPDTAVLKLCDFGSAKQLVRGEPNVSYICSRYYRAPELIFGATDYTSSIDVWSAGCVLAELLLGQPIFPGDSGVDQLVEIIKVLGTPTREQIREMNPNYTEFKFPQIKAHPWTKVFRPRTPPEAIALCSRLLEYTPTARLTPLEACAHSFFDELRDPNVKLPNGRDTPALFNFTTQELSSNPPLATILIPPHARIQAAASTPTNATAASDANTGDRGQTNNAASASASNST
For experiment [7], the target named is T2, Myotonin-protein kinase (Homo sapiens) (UniProt Q09013).
T2 sequence (whole entry): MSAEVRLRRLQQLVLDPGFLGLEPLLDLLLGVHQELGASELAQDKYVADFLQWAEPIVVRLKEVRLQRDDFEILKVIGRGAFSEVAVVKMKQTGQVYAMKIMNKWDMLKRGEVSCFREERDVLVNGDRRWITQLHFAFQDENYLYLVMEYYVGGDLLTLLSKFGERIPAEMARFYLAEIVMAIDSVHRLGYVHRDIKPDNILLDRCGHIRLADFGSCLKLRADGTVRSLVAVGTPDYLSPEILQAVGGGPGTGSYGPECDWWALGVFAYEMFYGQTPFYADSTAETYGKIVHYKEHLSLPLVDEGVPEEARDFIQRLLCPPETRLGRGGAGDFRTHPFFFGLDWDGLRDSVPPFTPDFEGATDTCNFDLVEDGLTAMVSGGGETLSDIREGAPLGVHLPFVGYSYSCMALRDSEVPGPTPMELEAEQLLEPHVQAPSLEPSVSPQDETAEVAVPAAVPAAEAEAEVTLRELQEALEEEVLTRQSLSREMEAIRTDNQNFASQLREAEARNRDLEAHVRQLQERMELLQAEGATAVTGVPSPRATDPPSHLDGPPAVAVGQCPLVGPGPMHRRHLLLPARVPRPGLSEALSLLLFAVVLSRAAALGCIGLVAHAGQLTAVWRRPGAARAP
Briefly: Residual activity of DMPK at 0.1 uM by microplate scintillation counting.

The target in experiment [8] is CDC42BPA protein (Homo sapiens) (UniProt B9EGA7). Briefly: Residual activity of CDC42BPA at 0.1 uM by microplate scintillation counting.
CDC42BPA protein (Homo sapiens), sequence (B9EGA7 as listed by the source): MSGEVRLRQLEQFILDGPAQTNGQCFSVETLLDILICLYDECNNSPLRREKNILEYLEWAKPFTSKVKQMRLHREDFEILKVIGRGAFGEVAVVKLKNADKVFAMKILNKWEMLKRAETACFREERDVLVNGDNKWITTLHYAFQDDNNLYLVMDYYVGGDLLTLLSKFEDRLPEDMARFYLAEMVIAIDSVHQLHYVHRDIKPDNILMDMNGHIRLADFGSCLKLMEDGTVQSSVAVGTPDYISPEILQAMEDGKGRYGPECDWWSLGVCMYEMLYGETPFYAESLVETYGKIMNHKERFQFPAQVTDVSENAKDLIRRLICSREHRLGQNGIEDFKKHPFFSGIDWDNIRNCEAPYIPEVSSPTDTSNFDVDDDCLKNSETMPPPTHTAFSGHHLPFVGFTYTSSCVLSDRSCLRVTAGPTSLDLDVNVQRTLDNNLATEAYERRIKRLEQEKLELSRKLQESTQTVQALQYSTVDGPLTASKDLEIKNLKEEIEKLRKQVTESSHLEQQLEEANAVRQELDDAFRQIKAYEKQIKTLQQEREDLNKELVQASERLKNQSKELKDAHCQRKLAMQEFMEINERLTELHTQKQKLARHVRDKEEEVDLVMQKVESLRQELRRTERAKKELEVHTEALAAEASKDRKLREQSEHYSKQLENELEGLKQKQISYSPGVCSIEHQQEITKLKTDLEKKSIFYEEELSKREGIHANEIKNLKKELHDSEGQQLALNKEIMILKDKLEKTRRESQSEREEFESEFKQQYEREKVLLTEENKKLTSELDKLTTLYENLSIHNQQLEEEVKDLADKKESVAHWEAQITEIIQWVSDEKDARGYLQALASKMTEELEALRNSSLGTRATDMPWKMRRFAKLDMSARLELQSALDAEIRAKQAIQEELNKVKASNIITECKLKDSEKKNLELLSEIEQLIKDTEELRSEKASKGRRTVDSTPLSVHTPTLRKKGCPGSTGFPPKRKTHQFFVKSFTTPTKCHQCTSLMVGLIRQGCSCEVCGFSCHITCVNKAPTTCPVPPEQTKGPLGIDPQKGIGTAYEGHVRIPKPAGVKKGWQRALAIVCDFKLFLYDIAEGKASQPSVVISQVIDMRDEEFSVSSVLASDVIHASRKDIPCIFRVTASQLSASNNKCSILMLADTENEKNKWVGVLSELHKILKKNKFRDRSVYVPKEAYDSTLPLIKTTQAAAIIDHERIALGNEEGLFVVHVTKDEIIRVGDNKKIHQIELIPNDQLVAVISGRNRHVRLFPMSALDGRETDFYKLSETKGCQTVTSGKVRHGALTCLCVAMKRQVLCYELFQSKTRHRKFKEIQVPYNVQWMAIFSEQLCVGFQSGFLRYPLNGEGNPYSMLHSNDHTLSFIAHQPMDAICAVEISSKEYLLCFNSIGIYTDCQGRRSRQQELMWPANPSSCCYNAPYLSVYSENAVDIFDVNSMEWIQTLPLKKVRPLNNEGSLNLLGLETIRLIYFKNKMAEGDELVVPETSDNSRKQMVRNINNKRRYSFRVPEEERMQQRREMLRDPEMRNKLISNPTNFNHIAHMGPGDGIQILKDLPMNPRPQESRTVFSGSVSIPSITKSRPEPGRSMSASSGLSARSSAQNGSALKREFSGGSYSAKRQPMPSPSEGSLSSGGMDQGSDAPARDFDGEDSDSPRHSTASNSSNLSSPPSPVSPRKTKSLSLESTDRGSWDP
Experiment [9] addresses Cyclin-dependent kinase 2/cyclin A (Homo sapiens) (UniProt P24941+P20248+P78396). The experiment can be described thus: Residual activity of CDK2/Cyclin A at 0.1 uM by microplate scintillation counting. The class given is protein-complex assay.
The target in experiment [10] is CDC42BPA protein (Homo sapiens) (UniProt B9EGA7). Briefly: Residual activity of CDC42BPA at 10 uM by microplate scintillation counting.
Experiment [11] has as its target Mast/stem cell growth factor receptor Kit (Homo sapiens) (UniProt P10721). Briefly: Residual activity of wild type KIT at 1 uM by microplate scintillation counting.
Experiment [12] deals with Tyrosine-protein kinase Lyn (Homo sapiens) (UniProt P07948). The experiment can be described thus: Residual activity of LYN at 0.1 uM by microplate scintillation counting.
Tyrosine-protein kinase Lyn (Homo sapiens), sequence (P07948 2-512 limits assumed): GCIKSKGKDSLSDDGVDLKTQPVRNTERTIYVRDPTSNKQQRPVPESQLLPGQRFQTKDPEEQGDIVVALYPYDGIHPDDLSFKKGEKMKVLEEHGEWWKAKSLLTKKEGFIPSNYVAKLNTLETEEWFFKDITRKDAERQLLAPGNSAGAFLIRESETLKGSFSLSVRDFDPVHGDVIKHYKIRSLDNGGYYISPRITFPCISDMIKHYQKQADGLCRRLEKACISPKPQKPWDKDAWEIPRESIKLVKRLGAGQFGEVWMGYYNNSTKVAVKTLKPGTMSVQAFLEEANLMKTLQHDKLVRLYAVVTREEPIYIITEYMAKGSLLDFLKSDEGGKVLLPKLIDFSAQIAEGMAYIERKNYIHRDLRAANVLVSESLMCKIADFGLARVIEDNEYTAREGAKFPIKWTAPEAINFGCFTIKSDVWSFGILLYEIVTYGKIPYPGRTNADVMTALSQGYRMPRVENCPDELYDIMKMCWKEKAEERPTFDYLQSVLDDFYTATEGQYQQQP
Experiment [13] concerns the target T3, Tyrosine-protein kinase receptor TYRO3 (Homo sapiens) (UniProt Q06418).
T3 sequence (whole entry): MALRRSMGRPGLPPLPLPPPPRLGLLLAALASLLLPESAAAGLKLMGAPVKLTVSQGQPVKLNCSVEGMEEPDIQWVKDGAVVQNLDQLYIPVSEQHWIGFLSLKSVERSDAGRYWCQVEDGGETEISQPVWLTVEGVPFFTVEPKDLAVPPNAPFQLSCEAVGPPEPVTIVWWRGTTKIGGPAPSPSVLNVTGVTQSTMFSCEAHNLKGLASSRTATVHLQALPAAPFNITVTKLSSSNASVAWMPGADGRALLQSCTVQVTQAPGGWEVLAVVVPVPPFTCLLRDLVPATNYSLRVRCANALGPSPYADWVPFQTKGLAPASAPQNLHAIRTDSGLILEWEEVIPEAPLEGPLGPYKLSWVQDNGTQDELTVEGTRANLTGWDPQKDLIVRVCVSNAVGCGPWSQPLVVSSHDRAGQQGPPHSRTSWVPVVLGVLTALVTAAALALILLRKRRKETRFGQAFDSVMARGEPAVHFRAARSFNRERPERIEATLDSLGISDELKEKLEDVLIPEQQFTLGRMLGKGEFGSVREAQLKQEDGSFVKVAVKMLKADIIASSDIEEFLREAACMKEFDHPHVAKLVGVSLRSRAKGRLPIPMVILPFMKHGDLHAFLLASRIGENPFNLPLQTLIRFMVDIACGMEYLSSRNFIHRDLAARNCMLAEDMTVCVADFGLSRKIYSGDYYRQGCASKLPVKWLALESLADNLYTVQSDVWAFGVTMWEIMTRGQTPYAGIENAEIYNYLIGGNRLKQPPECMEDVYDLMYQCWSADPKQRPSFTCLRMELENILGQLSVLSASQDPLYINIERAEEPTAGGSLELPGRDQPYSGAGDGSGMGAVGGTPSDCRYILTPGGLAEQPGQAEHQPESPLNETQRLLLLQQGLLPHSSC
Briefly: Residual activity of TYRO3 at 0.1 uM by microplate scintillation counting.

Experiment [14] concerns the target Ribosomal protein S6 kinase alpha-1 (Homo sapiens) (UniProt Q15418). Briefly: Residual activity of RPS6KA1 at 1 uM by microplate scintillation counting.
In experiment [15] the target is RAC-beta serine/threonine-protein kinase (Homo sapiens) (UniProt P31751). Briefly: Residual activity of AKT2 at 1 uM by microplate scintillation counting.

SMILES strings stand for the structures.

G protein-coupled receptor kinase 6 (Homo sapiens), sequence (P43250 whole entry, looked up): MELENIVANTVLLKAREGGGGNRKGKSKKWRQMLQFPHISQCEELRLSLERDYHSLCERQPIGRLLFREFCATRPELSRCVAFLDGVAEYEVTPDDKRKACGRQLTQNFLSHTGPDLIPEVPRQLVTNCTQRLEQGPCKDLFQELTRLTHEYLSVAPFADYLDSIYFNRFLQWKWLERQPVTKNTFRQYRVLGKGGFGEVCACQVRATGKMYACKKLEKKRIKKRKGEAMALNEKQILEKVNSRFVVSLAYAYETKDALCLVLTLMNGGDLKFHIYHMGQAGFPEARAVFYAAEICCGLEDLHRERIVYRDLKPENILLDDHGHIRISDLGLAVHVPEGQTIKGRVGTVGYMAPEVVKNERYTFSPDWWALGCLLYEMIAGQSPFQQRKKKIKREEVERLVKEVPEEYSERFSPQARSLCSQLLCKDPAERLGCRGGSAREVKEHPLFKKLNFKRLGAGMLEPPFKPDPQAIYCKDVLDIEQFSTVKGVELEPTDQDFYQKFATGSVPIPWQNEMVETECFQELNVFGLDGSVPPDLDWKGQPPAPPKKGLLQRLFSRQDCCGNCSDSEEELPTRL
Cyclin-dependent kinase 16 (Homo sapiens), sequence (Q00536 whole entry): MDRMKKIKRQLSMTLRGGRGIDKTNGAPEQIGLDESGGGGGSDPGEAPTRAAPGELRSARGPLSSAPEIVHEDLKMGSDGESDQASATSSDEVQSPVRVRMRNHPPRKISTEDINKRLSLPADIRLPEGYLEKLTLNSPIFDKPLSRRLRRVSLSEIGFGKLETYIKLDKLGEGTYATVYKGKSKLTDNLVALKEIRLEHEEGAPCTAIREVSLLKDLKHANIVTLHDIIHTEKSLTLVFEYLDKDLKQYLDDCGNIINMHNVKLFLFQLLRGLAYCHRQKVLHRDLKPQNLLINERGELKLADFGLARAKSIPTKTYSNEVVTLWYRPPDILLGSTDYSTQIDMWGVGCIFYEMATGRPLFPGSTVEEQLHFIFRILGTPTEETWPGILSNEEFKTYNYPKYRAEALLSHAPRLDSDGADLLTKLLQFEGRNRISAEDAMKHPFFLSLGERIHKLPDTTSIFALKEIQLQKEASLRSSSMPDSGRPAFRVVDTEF
CDK3/cyclin E (Homo sapiens), sequence (O96020 whole entry, looked up): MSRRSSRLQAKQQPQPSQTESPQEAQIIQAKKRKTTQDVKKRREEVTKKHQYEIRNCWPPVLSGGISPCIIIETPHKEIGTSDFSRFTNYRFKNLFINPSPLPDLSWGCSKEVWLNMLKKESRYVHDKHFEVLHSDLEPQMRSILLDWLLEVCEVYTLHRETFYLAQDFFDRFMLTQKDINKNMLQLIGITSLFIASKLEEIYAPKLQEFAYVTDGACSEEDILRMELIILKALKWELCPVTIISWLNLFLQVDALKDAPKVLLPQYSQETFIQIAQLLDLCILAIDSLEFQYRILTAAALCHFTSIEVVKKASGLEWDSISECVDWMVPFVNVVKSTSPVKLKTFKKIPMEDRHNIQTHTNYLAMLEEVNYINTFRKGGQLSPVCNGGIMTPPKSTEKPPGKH
CDK3/cyclin E (Homo sapiens), sequence (P24864 whole entry, looked up): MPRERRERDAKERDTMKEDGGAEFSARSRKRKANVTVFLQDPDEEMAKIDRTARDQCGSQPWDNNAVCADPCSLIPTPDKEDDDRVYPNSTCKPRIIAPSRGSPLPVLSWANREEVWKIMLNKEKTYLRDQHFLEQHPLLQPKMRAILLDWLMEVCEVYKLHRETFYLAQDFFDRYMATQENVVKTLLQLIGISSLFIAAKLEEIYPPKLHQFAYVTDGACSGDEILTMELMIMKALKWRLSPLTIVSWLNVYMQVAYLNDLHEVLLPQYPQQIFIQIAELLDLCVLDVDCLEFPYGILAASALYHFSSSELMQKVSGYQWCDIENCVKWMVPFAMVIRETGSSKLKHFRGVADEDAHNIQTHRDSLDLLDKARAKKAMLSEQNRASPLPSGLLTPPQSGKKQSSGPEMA
CDK3/cyclin E (Homo sapiens), sequence (Q00526 whole entry, looked up): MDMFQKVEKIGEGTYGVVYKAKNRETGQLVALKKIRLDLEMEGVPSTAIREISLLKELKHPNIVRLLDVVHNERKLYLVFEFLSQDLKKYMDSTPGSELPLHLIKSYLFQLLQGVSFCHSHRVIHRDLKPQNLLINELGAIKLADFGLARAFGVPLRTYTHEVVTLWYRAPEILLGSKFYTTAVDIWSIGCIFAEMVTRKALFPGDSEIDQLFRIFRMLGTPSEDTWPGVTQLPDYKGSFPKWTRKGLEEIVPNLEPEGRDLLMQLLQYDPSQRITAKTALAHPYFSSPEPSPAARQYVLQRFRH

Take `COc1cc2c(Oc3ccc(-c4nc5ccccc5s4)cc3F)ncnc2cc1OCCCN1CCN(C)CC1`: the residual activity was found to be 104% in [1]; 98% in experiment [2]; 153% in experiment [3]; 70% in [4]; 94% in [5]; 86% in [6]. Moreover, the residual activity in experiment [7] turned out to be 102%; in experiment [8] it was 86%; in [9] it was 100%; in experiment [10] it was 51%; in experiment [11], 128%; in [12], 102%. The residual activity in experiment [13] worked out at 115%; in [14], 88%; in experiment [15], 113%.
For the molecule `COc1cc2c(Oc3ccc(-c4nc5ccccc5s4)cc3)ncnc2cc1OCCCN1CCN(C)CC1`, the residual activity was found to be 91% in experiment [1]; 86% in experiment [2]; 163% in experiment [3]; 167% in experiment [4]; 86% in experiment [5]; 96% in experiment [6]. Moreover, the residual activity in experiment [7] is 128%; in experiment [8], 112%; in [9] it was 94%; in experiment [10] it was 61%; in experiment [11], 124%; in experiment [12] it was 112%. Moreover, the residual activity in [13] amounted to 120%; in experiment [14], 78%; in experiment [15] it was 83%.
As to `COc1cc2c(Oc3ccc(-c4nc5ccccc5s4)cc3)ncnc2cc1OCCCN1CCCC1`, the residual activity was 105% in [1]; 90% in [2]; 126% in [3]; 147% in experiment [4]; 86% in [5]; 98% in [6]. Moreover, the residual activity stood at 110% in experiment [7]; 104% in [8]; 96% in experiment [9]; 79% in [10]; 129% in experiment [11]; 108% in experiment [12]. Besides, the residual activity in [13] amounted to 106%; in experiment [14], 74%; in experiment [15] it was 91%.

For orientation: residual activity means the signal under treatment as a percentage of the control signal.
